In US9580442B2, “Tricyclic heterocyclic compounds as phosphoinositide 3-kinase inhibitors” (Karus Therapeutics Limited, priority 2009, dated 2017):
Where two headings read alike, the source gives them in different places.

Tests used:
PI3K p110γ = PI3K p110γ (Homo sapiens (Human), UniProt P48736); test: PI3K isoform biochemical assay, p110γ
A549 (Lung Tumour) = test: In vitro inhibition of tumour cell proliferation, A549; type: cell-based
[1] = system: Rheumatoid Arthritis Synovial Fibroblast (RASF); test: In vitro inhibition of rheumatoid arthritis synovial fibroblast (RASF) proliferation; type: cell-based
PI3K p110β = PI3K p110β (Homo sapiens (Human), UniProt P42338); test: PI3K isoform biochemical assay, p110β
PI3K p110β, sequence (P42338 whole entry, canonical isoform): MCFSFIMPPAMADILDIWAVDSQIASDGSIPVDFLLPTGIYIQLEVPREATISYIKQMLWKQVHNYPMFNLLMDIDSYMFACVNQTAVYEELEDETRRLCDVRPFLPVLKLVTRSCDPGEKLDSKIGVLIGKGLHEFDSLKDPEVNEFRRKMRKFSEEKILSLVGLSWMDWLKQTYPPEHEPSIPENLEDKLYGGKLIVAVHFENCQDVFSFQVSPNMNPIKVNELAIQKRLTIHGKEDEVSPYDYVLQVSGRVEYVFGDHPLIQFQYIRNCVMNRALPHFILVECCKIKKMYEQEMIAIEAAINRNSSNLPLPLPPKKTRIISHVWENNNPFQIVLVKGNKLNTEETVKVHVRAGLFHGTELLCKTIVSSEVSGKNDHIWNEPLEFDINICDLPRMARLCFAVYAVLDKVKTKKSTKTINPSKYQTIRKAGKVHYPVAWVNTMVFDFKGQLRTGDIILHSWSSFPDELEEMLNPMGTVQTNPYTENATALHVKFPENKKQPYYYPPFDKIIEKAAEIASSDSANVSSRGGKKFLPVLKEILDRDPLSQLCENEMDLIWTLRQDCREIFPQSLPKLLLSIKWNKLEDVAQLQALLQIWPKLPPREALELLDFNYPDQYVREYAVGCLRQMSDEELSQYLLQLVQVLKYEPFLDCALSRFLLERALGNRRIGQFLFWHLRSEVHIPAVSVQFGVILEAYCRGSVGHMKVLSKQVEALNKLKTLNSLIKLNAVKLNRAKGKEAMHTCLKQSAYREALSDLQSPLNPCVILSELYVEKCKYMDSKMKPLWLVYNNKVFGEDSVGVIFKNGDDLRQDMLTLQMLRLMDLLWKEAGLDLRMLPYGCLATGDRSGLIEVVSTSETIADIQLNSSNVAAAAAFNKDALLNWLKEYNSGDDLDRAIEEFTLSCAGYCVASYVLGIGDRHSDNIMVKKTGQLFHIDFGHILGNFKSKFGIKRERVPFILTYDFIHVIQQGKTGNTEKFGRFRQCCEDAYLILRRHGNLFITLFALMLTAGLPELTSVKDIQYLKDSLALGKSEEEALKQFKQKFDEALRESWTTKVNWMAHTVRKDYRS
PI3K p110β, sequence (P27986 whole entry partner, canonical isoform): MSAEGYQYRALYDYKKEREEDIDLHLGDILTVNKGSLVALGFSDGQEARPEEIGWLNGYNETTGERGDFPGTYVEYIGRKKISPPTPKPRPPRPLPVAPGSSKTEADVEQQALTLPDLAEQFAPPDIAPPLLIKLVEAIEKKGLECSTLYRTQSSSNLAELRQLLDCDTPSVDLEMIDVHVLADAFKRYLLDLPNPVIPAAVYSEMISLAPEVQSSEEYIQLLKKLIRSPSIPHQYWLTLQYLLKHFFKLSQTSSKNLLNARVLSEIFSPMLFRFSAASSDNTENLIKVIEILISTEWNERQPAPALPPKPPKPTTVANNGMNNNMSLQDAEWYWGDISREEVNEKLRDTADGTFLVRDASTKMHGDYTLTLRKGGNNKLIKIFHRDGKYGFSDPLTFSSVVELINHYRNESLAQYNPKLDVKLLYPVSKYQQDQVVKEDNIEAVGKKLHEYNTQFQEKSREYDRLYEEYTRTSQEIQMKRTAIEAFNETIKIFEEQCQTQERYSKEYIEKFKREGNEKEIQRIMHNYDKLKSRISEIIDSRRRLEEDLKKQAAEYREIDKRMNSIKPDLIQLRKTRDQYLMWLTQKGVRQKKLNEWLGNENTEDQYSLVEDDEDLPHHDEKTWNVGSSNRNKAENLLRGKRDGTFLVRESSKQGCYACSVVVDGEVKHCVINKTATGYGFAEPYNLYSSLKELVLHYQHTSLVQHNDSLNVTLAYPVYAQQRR

PC3 (Prostate Tumour) = test: In vitro inhibition of tumour cell proliferation, PC3; type: cell-based
MCF7 (Breast Tumour) = test: In vitro inhibition of tumour cell proliferation, MCF7; type: cell-based
PI3K p110δ = PI3K p110δ (Homo sapiens (Human), UniProt O00329); test: PI3K isoform biochemical assay, p110δ
PI3K p110δ, sequence (O00329 whole entry, canonical isoform): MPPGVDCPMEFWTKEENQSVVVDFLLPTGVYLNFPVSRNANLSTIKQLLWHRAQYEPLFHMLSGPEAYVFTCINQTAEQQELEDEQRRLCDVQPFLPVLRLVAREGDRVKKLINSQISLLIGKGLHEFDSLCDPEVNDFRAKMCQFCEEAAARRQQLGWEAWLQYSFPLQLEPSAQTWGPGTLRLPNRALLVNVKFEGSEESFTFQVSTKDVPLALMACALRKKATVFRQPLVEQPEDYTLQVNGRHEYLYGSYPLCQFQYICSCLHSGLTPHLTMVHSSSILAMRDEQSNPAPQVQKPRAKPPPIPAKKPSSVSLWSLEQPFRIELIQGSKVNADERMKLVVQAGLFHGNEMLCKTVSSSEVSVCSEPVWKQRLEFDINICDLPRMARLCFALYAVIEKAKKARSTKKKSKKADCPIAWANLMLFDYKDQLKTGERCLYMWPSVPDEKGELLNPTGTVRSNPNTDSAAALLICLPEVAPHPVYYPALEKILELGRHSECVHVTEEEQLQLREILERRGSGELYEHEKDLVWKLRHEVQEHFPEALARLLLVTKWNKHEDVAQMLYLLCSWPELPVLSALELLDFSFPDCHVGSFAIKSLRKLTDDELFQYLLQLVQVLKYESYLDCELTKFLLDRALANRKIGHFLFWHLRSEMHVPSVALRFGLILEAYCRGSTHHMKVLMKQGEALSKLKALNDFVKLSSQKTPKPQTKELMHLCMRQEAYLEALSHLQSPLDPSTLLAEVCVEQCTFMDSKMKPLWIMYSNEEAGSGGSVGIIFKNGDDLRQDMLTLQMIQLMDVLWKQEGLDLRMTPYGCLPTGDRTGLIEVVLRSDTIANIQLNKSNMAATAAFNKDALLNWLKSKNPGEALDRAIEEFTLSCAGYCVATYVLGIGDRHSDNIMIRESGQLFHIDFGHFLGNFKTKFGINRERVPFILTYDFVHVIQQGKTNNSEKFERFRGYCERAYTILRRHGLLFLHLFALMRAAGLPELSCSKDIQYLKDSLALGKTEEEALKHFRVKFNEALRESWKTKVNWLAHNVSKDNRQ
PI3K p110δ, sequence (P27986 whole entry partner, canonical isoform): as the sequence (P27986 whole entry partner, canonical isoform) above

PI3K p110α = PI3K p110α (Homo sapiens (Human), UniProt P42336); test: PI3K isoform biochemical assay, p110α
PI3K p110α, sequence (P42336 whole entry, canonical isoform): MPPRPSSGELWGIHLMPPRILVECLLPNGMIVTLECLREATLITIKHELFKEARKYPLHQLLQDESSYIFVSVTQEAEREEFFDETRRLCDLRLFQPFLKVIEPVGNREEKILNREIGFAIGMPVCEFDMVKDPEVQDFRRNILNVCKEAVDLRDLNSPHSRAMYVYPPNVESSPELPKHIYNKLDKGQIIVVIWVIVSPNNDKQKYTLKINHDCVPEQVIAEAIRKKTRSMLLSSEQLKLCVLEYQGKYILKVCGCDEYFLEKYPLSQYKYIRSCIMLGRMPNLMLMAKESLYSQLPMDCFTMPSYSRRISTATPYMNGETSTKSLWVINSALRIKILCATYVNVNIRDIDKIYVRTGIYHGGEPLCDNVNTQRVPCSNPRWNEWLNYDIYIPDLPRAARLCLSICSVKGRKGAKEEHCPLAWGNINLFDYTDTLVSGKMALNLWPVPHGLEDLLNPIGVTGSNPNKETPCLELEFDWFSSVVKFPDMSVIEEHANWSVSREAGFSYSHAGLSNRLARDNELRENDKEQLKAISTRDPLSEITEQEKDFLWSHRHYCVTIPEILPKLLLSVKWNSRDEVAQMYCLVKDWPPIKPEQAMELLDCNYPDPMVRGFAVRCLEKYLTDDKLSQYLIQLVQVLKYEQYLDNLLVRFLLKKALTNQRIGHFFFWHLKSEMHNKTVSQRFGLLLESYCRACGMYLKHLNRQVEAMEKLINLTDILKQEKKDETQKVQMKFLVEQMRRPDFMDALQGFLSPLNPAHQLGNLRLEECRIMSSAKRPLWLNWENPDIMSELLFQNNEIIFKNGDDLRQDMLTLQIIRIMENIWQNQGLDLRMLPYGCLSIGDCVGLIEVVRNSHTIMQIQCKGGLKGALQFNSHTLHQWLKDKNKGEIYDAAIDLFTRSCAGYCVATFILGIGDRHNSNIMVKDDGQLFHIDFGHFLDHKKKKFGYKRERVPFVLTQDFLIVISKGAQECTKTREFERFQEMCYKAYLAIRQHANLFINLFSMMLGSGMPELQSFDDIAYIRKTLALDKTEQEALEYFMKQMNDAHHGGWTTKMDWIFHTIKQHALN
PI3K p110α, sequence (P27986 whole entry partner, canonical isoform): as the sequence (P27986 whole entry partner, canonical isoform) above

IL-21 = test: Inhibition of IL-21 production from anti-CD3-stimulated hPBMCs; type: cell-based, human; conditions: for inhibition at 1 µM: Homo sapiens, hPBMCs stimulated with anti-CD3, read-out: % Inhibition of Proinflammatory Cytokine Production at 1 uM, IL-21
Protocol: (§1) 2) Anti-Inflammatory Activity: Inhibition of the Production of Pro-Inflammatory Cytokines from Stimulated Human Peripheral Blood Mononuclear Cells (hPBMCs)
(§2) Compounds were tested at a concentration of 1 uM for cytokine release inhibition in hPBMCs stimulated with LPS (TNFα), PHA (IFNγ) and anti-CD3 (IL-17A, IL-17F, IL-21, IL-23): […]

IL-17F = test: Inhibition of IL-17F production from anti-CD3-stimulated hPBMCs; type: cell-based, human; conditions: for inhibition at 1 µM: Homo sapiens, hPBMCs stimulated with anti-CD3, read-out: % Inhibition of Proinflammatory Cytokine Production at 1 uM, IL-17F
Protocol: as §1, §2

IL-23 = test: Inhibition of IL-23 production from anti-CD3-stimulated hPBMCs; type: cell-based, human; conditions: for inhibition at 1 µM: Homo sapiens, hPBMCs stimulated with anti-CD3, read-out: % Inhibition of Proinflammatory Cytokine Production at 1 uM, IL-23
Protocol: as §1, §2

IFNγ = test: Inhibition of IFNγ production from PHA-stimulated hPBMCs; type: cell-based, human; conditions: hPBMCs stimulated with PHA; for inhibition at 1 µM: Homo sapiens, read-out: % Inhibition of Proinflammatory Cytokine Production at 1 uM, IFNγ
Protocol: as §1, §2

IL-17A = test: Inhibition of IL-17A production from anti-CD3-stimulated hPBMCs; type: cell-based, human; conditions: for inhibition at 1 µM: Homo sapiens, hPBMCs stimulated with anti-CD3, read-out: % Inhibition of Proinflammatory Cytokine Production at 1 uM, IL-17A
Protocol: as §1, §2

TNFα = test: Inhibition of TNFα production from LPS-stimulated hPBMCs; type: cell-based, human; conditions: hPBMCs stimulated with LPS; for inhibition at 1 µM: Homo sapiens, read-out: % Inhibition of Proinflammatory Cytokine Production at 1 uM, TNFα
Protocol: as §1, §2

[2] = hPBMCs stimulated with anti-CD3

PI3K p110γ, sequence (P48736 whole entry, canonical isoform): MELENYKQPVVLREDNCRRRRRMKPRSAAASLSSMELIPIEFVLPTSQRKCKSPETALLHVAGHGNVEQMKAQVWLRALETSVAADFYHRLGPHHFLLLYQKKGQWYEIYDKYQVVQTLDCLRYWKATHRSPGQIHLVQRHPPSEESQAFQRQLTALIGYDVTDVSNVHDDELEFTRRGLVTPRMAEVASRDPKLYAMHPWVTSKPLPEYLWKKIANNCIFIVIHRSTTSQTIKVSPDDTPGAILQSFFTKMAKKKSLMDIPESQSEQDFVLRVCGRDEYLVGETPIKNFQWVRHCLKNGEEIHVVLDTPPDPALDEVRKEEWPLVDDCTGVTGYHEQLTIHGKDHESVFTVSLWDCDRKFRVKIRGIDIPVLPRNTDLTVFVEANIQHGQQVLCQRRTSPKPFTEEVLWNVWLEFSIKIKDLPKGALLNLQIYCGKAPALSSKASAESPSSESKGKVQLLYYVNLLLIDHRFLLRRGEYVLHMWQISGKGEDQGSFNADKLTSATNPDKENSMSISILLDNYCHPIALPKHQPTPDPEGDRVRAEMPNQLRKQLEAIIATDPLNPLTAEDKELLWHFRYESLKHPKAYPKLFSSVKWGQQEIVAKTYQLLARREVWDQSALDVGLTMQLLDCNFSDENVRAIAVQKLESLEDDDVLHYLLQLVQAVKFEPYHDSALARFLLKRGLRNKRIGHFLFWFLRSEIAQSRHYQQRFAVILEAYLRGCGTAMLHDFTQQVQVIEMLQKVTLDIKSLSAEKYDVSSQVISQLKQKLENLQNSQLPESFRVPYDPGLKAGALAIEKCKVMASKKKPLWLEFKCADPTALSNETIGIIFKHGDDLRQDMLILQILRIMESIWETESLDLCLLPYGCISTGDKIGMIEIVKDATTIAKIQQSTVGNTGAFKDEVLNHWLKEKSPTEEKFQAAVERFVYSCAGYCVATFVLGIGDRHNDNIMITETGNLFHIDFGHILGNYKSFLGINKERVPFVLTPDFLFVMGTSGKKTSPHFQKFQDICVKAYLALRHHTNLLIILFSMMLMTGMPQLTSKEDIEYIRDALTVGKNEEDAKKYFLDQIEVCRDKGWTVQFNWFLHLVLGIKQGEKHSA

Compound | IC50 (PI3K p110γ) [nM] | IC50 (A549 (Lung Tumour); Homo sapiens) [nM] | IC50 (PI3K p110β) [nM] | IC50 (PC3 (Prostate Tumour); Homo sapiens, PC-3) [nM] | IC50 (MCF7 (Breast Tumour); Homo sapiens) [nM] | IC50 (PI3K p110δ) [nM] | IC50 (PI3K p110α) [nM] | IC50 ([1]; Fibroblast) [nM] | other results
c1cc(-c2nc(N3CCOCC3)c3sc4ncccc4c3n2)c2cc[nH]c2c1 [A, 2-(1H-Indol-4-yl)-4-morpholin-4-yl-pyrido[3′,2′:4,5]thieno[3,2-d]pyrimidine] | 873 | 151 | 137 | 3010 | 331 | 15 | 54 | 1350 | –
c1cc(-c2nc(N3CCOCC3)c3oc4ncccc4c3n2)c2cc[nH]c2c1 [B, 2-(1H-Indol-4-yl)-4-morpholin-4-yl-pyrido[3′,2′:4,5]furo[3,2-d]pyrimidine] | 317 | 229 | 19 | 1340 | 145 | 6 | 159 | 817 | inhibition at 1 µM (IL-21): 96%; inhibition at 1 µM (IL-17F): 96%; inhibition at 1 µM (IL-23): 94%; inhibition at 1 µM (IFNγ): 73%; inhibition at 1 µM (IL-17A): 99%; inhibition at 1 µM (TNFα): 26%
c1cc(-c2nc(N3CCOCC3)c3oc4ncc(CN5CCCCC5)cc4c3n2)c2cc[nH]c2c1 [Compound I, 2-(1H-Indol-4-yl)-4-morpholin-4-yl-8-piperidin-1-ylmethyl-pyrido[3′,2′:4,5]furo[3,2d]pyrimidine] | – | – | – | – | – | – | – | 5720 | inhibition at 1 µM (IL-21): 96%; inhibition at 1 µM (IL-17F): 95%; inhibition at 1 µM (IL-23): 90%; inhibition at 1 µM (IFNγ): 80%; inhibition at 1 µM (IL-17A): 95%; inhibition at 1 µM (TNFα): 61%
c1cnc2oc3c(N4CCOCC4)nc(-c4ccnc5[nH]ccc45)nc3c2c1 [D, 4-Morpholin-4-yl-2-(1H-pyrrolo[2,3-b]pyridin-4-yl)-pyrido[3′,2′:4,5]furo[3,2-d]pyrimidine] | 103 | – | 57 | – | – | 33 | 104 | – | –
c1cc(-c2cnc3oc4c(N5CCOCC5)nc(-c5cccc6[nH]ccc56)nc4c3c2)c2cc[nH]c2c1 [E, 2,8-Bis-(1H-indol-4-yl)-4-morpholin-4-yl-pyrido[3′,2′:4,5]furo[3,2-d]pyrimidine] | 627 | – | 69 | – | – | 7 | 88 | – | –
CN(C)C(=O)/C=C/c1cnc2oc3c(N4CCOCC4)nc(-c4cccc5[nH]ccc45)nc3c2c1 [G, (E)-3-[2-(1H-Indol-4-yl)-4-morpholin-4-yl-pyrido[3′,2′:4,5]furo[3,2-d]pyrimidin-8-yl]-N,N-dimethylacrylamide] | 1660 | 186 | 83 | 3770 | 127 | 5 | 223 | – | –
(E)-1-(4-Methyl-piperazin-1-yl)-3-[4-morpholin-4-yl-2-(1H-pyrrolo[2,3-b]pyridin-4-yl)-pyrido[3′,2′:4,5]furo[3,2-d]pyrimidin-8-yl]-propenone | 269 | – | 109 | – | – | 6 | 127 | – | % Inhibition of Proinflammatory Cytokine Production at 1 uM, IL-21 (IL-21; [2]): 82%; % Inhibition of Proinflammatory Cytokine Production at 1 uM, IL-17F (IL-17F; [2]): 74%; % Inhibition of Proinflammatory Cytokine Production at 1 uM, IL-23 (IL-23; [2]): 93%; % Inhibition of Proinflammatory Cytokine Production at 1 uM, IFNγ (IFNγ): 67%; % Inhibition of Proinflammatory Cytokine Production at 1 uM, IL-17A (IL-17A; [2]): 77%; IC50 (A549 (Lung Tumour)): 1150 nM; IC50 [1]: 2240 nM; IC50 (PC3 (Prostate Tumour)): 7290 nM; % Inhibition of Proinflammatory Cytokine Production at 1 uM, TNFα (TNFα): 74%; IC50 (MCF7 (Breast Tumour)): 215 nM

More lines, main results first:

IC50 (PI3K p110γ) [nM] | IC50 (A549 (Lung Tumour); Homo sapiens) [nM] | IC50 (PI3K p110β) [nM] | IC50 (PC3 (Prostate Tumour); Homo sapiens, PC-3) [nM] | IC50 (MCF7 (Breast Tumour); Homo sapiens) [nM] | IC50 (PI3K p110δ) [nM] | IC50 (PI3K p110α) [nM] | Compound | IC50 ([1]; Fibroblast) [nM] | other results
213 | 466 | 63 | 3030 | 165 | 6 | 398 | CN(C)Cc1cnc2oc3c(N4CCOCC4)nc(-c4cccc5[nH]ccc45)nc3c2c1 [H, [2-(1H-Indol-4-yl)-4-morpholin-4-yl-pyrido[3′,2′:4,5]furo[3,2-d]pyrimidin-8-ylmethyl]-dimethyl-amine] | 1900 | inhibition at 1 µM (IL-21): 96%; inhibition at 1 µM (IL-17F): 96%; inhibition at 1 µM (IL-23): 93%; inhibition at 1 µM (IFNγ): 87%; inhibition at 1 µM (IL-17A): 99%; inhibition at 1 µM (TNFα): 75%
1040 | – | 277 | – | – | 26 | 680 | CN1CCN(Cc2cnc3oc4c(N5CCOCC5)nc(-c5cccc6[nH]ccc56)nc4c3c2)CC1 [J, 2-(1H-Indol-4-yl)-8-(4-methyl-piperazin-1-ylmethyl)-4-morpholin-4-yl-pyrido[3′,2′:4,5]furo[3,2-d]pyrimidine] | – | –
2610 | 682 | 64 | 3340 | 352 | 6 | 355 | c1cc(-c2nc(N3CCOCC3)c3oc4ncc(CN5CCOCC5)cc4c3n2)c2cc[nH]c2c1 [K, 2-(1H-Indol-4-yl)-4-morpholin-4-yl-8-morpholin-4-ylmethyl-pyrido[3′,2′:4,5]furo[3,2-d]pyrimidine] | 3020 | –
1820 | 1600 | 111 | 3240 | 119 | 21 | 604 | COCCN(C)Cc1cnc2oc3c(N4CCOCC4)nc(-c4cccc5[nH]ccc45)nc3c2c1 [L, [2-(1H-Indol-4-yl)-4-morpholin-4-yl-pyrido[3′,2′:4,5]furo[3,2-d]pyrimidin-8-ylmethyl]-(2-methoxy-ethyl)-methyl-amine] | – | –
219 | – | 25 | – | – | 10 | 96 | c1cc(-c2nc(N3CCOCC3)c3oc4ncc(N5CCOCC5)cc4c3n2)c2cc[nH]c2c1 [M, 2-(1H-Indol-4-yl)-4,8-di-morpholin-4-yl-pyrido[3′,2′:4,5]furo[3,2-d]pyrimidine] | 1610 | –
2540 | – | 131 | – | – | 22 | 597 | N#CCCN1CCN(Cc2cnc3oc4c(N5CCOCC5)nc(-c5cccc6[nH]ccc56)nc4c3c2)CC1 [R, 3-{4-[2-(1H-Indol-4-yl)-4-morpholin-4-yl-pyrido[3′,2′:4,5]furo[3,2-d]pyrimidin-8-ylmethyl]-piperazin-1-yl}-propionitrile] | – | –
